{
  "source": "patent US9204630B2",
  "about": "“Capsule formulation” (Syngenta Participations AG, priority 2005, dated 2015)",
  "data": [
    {"assay": "Screen of EC formulations for substances that photoprotect emamectin benzoate", "format": "physicochemical", "design": "key: #1 represents no improvement; #3 represents those photoprotectants that conferred a significant improvement in photostability", "conditions": "performance of the photostabiliser relative to the non-photostabilised EC; 2% w/w emamectin benzoate EC, photoprotectant to insecticide 1:1; deposits on glass irradiated in Suntest, HPLC-MS", "description": "The photoprotectant to be screened was either dissolved or dispersed in a simple Solvesso 200 based EC formulation containing 2% w/w emamectin benzoate, 10% w/w Soprophor BSU and 3% w/w phenyl sulfonate calx. The weight ratio of photoprotectant to insecticide was 1:1.\nThe ECs were diluted in water to the typical field application rate of emamectin benzoate, 10 g ai/ha at a spray volume of 200 l/ha. 2 μl droplets were applied to clean glass microscope slides and allowed to dry prior to being irradiated in an Atlas XLS+ Suntest artificial sunlight simulator, which employs a filtered xenon light source providing a spectral energy distribution similar to natural outdoor exposure. After irradiation, deposits were removed from the glass slides by a solvent wash and quantified by high performance liquid chromatography (HPLC) with mass-spectrometric (MS) detection.", "values": [
      {"compound": "1-[[4-[(dimethylphenyl)azo]dimethylphenyl]azo]-2-naphthalenol [Example 1I]", "Screen Result": 3},
      {"compound": "Nc1c(S(=O)(=O)[O-])cc(Nc2ccccc2)c2c1C(=O)c1ccccc1C2=O.[Na+]", "note": "[Example 1A, monosodium 1-amino-9,10-dihydro-9,10-dioxo-4-(phenylamino)-2-anthracenesulfonate]", "Screen Result": 3},
      {"compound": "CC(C)Nc1ccc(NC(C)C)c2c1C(=O)c1ccccc1C2=O", "note": "[Example 1B, 1,4-bis[(1-methylethyl)amino]-9,10-anthracenedione]", "Screen Result": 3},
      {"compound": "Cc1cc(S(=O)(=O)[O-])ccc1N=Nc1c(O)ccc2ccccc12.[Na+]", "note": "[Example 1C, monosodium 4-[(2-hydroxy-1-naphthalenyl)azo]-3-methyl-benzenesulfonate]", "Screen Result": 3},
      {"compound": "O=[N+]([O-])c1ccc(N=Nc2ccc(Nc3ccccc3)cc2)cc1", "note": "[Example 1D, 4-[(4-nitrophenyl)azo]-N-phenyl-benzenamine]", "Screen Result": 3},
      {"compound": "Oc1ccc(N=Nc2ccc(N=Nc3ccccc3)c3ccccc23)cc1", "note": "[Example 1E, 4-[[4-(phenylazo)-1-naphthalenyl]azo]-phenol]", "Screen Result": 3},
      {"compound": "CCN(CCC#N)c1ccc(N=Nc2ccc([N+](=O)[O-])cc2)cc1", "note": "[Example 1F, 3-[ethyl[4-[(4-nitrophenyl)azo]phenyl]amino]-propanenitrile]", "Screen Result": 3},
      {"compound": "Nc1ccc(N=Nc2ccc([N+](=O)[O-])cc2)cc1", "note": "[Example 1G, 4-[(4-nitrophenyl)azo]-benzenamine]", "Screen Result": 3},
      {"compound": "Cc1ccccc1N=Nc1cc(C)c(N=Nc2c(O)ccc3ccccc23)cc1C", "note": "[Example 1H, 1-[[2,5-dimethyl-4-[(2-methylphenol)azo]phenyl]azo]-2-naphthalenol]", "Screen Result": 3},
      {"compound": "Cc1ccccc1N=Nc1c(O)ccc2ccccc12", "note": "[Example 1J, 1-(ortho-tolylazo)-2-naphthol]", "Screen Result": 3},
      {"compound": "Oc1ccc2ccccc2c1N=Nc1ccc(N=Nc2ccccc2)cc1", "note": "[Example 1K]", "Screen Result": 3},
      {"compound": "CC1(C)Nc2cccc3c(N=Nc4ccc(N=Nc5ccccc5)c5ccccc45)ccc(c23)N1", "note": "[Example 1M, 2,3-dihydro-2,2-dimethyl-6-[[4-(phenylazo)-1-naphthalenyl]azo]-1H-perimidine]", "Screen Result": 3},
      {"compound": "Oc1ccc2ccccc2c1N=Nc1ccccc1", "note": "[Example 1N, 1-(phenylazo)-2-naphthalenol]", "Screen Result": 3},
      {"compound": "Cc1cc(N=Nc2ccc(N=Nc3c(O)ccc4ccccc34)c(C)c2)ccc1O", "note": "[Example 1O, 1-[[2-methyl-4-[(2-methylphenol)azo]phenyl]azo]-2-naphthalenol]", "Screen Result": 3},
      {"compound": "COc1ccc(C=C(C(=O)OC2CC(C)(C)N(C)C(C)(C)C2)C(=O)OC2CC(C)(C)N(C)C(C)(C)C2)cc1", "note": "[Example 1R, propanedioic acid, [(4-methoxy-phenyl)-methylene]-, bis(1,2,2,6,6-pentamethyl-4-piperidinyl)ester]", "Screen Result": 3},
      {"compound": "CC(C)(C)CC(C)(C)c1ccc([O-])c(Sc2cc(C(C)(C)CC(C)(C)C)ccc2[O-])c1.CCCCN.[Ni+2]", "note": "[Example 1S, 2,2′-thiobis[4-t-octylphenolato]-beta-butylamine nickel (II)]", "Screen Result": 3}
    ]}
  ]
}
